Results on seven molecules are retold here after US20150023883A1, “Antiperspirant Spray Devices and Compositions” (The Procter & Gamble Company, priority 2013, published 2015).

The text on this series:
Solubility may be determined by measuring the amount of light transmittance (a light transmittance value) through a simple mixture of the non-volatile silicone fluid and liquid activation enhancer at the same weight/weight concentrations as in a final antiperspirant composition.
Solubility of a liquid activation enhancer in a non-volatile silicone may be determined by measuring the amount of light transmittance (light transmittance value) through a simple mixture of the non-volatile silicone fluid and liquid activation enhancer at the same weight/weight concentrations as in a final antiperspirant composition.
The Spectronic Genesys 10 Vis utilizes a tungsten-halogen light source and has a spectral bandwidth of 5 nm, a wavelength range of 325 to 1100 nm, accuracy of ±1 nm and a repeatability of ±0.5 nm. Readouts include absorbance, transmittance and concentration. The spectrophotometer is set to 640 nm wavelength and the percent transmittance mode/readout. Polystyrene spectrometer cuvettes having a 1 cm optical light path and transmittance between ˜340 nm and ˜900 nm are used. One suitable example of a spectrometer cuvette is available from VWR International LLC under Catalog #97000-584 having a 2.5 to 4.5 ml capacity. The spectrophotometer is calibrated according to the manufacturer's instructions using a reference cuvette and composition comprised of just the non-volatile silicone fluid of interest. For example, if the test composition comprises 50 centistoke dimethicone and 15% w/w of isopropyl myristate, then the spectrometer is calibrated using a cuvette containing just 50 centistoke dimethicone. Sample cuvettes are filled sufficiently with a test composition of a non-volatile silicone fluid and liquid activation enhancer so that the light path of the spectrophotometer passes through the test composition in the cuvette. The sample cuvettes are shaken well just prior to taking a light transmittance reading.
On to `CCCCCCCCCCCCCCCCCC(=O)OCCCC` [butyl stearate], for which the light transmittance value entry is listed as “about 100%”.
With `CCCCCCCCCCCCCC(C)C` [isohexadecane], the light transmittance value entry is “about 100%” and the “solubility in 50 centistoke dimethicone” value was “soluble”.
In the case of `CCCCCCCCCCCCCC(=O)OC(C)C` [isopropyl myristate], the light transmittance value result is reported as “about 101%”.
Still for that read-out and setting: under `CCCCCCCCCCCCCCCC(=O)OC(C)C` [isopropyl palmitate] stands “about 101%”.
With `CCCCCCCCCCC(CO)CCCCCCCC` (centres unmarked) [octyldodecanol], the “solubility in 50 centistoke dimethicone” value was “soluble in the 50 centistoke dimethicone at some (lower) concentrations”.
Same read-out and setting: the entry for PPG-14 butyl ether is “insoluble”.
Take mineral oil: the “solubility in 50 centistoke dimethicone” value is listed as “soluble in 50 centistoke dimethicone at some (lower) concentrations”.
